Data on 12 compounds can be found in patent US20240269321A1, “PREPARATION AND STORAGE OF LIPOSOMAL RNA FORMULATIONS SUITABLE FOR THERAPY” (BioNTech SE, priority 2020, published 2024).

“Also recorded” adds a separate entry of the source. Where two headings read alike, the source gives them in different places.

A short description of data set [1]: RNA integrity in RNA lipoplexes at 40° C. (capillary electrophoresis). Conditions: 21 days, no cryoprotectant.
Method: RNA lipoplexes are initially incubated under stress conditions (40° C.) in the absence of cryoprotectant. RNA integrity was analyzed by capillary electrophoresis over 21 days. In order to investigate the optimum pH range in the presence of an exemplary cryoprotectant, RNA lipoplexes were incubated in the presence of HEPES and sucrose at 40° C. and RNA integrity was analyzed for 21 days.
RNA integrity was analyzed as a key physicochemical parameter over 21 days.
Data set [2] is described as follows: Freezing of RNA lipoplexes with cryoprotectants and NaCl (particle size). The format is physicochemical. Conditions: for preservation of particle size after a single freezing step: 20% (w/v) cryoprotectant, 0 to 60 mM NaCl, −30° C.
Excerpt: Methods: Different compounds representative for monosaccharides (glucose and sorbitol), disaccharides (sucrose and trehalose), amino acids (arginine, prolin), triols (glycerin) as well as cryoprotectant systems containing mixtures of different sugars (mannitol and sucrose) were investigated in order to identify suited cryoprotectants (FIGS. 25 and 26). Therefore RNA lipoplexes were frozen in the presence of increasing concentration of these compounds. In order to identify minimum content of cryoprotectant at a certain concentration of NaCl, RNA lipoplexes were frozen in the presence of increasing amounts of sucrose or trehalose as representative cryoprotectants (Table 7). The samples were initially frozen a single time in order to determine the concentration range of cryoprotectant to be investigated in detail. In a third experiment, the efficacy of stabilization of the particle size was challenged by freezing of the RNA lipoplexes up to 10 times in the presence of the cryoprotectant trehalose (Table 8).
How the values of data set [3] were obtained:
The samples were frozen at −30° C. and then transferred to the respective temperature for long-term storage (either −15 or −30° C.). After defined storage time, samples were analyzed and preservation of the colloidal stability was analyzed by measuring the particle size using PCS. These experiments were performed at a total RNA concentration of 0.05 mg/mL.
Method: To investigate the minimum content of representative cryoprotectants as sucrose, trehalose, glucose and mixtures including dextran required for long-term storage at −20° C., RNA lipoplexes were frozen at a fixed cryoprotectant content in combination with varying NaCl concentrations. For monomeric or dimeric molecular cryoprotectants as glucose, sucrose, and trehalose a concentration of 22% (w/v) was adjusted. These formulations were frozen and stored at −15 to −40° C. and long-term stability was investigated by measuring the particle size using PCS after defined storage time.
The samples were frozen and stored at −20° C. After defined storage time, samples were analyzed and preservation of the colloidal stability was analyzed by measuring the particle size.

Data set [4] in a line: Storage of drug product at −15° C., particle size and AF4. Conditions: derived from AF4 data, worst-case conditions, 12 months. The format is physicochemical. The method, then: The AF4 method is a fractionation technique for characterization and separation of nanoparticles, polymers and proteins based on their diffusion coefficient. The separation is achieved using hydrodynamic forces applied in the flat separation channel. Within a channel, a parabolic flow profile is created due to the laminar flow of mobile phase against which a perpendicular force field is applied. The separation was performed by an elution inject program with an inject flow of 0.2 mL/min, detector flow of 0.5 mL/min and crossflow of 1.5 mL/min. The eluted particles were detected by multi-angle light scattering (MALS) detector (HELLEOS II, Wyatt Technology Corp.Santa Barbara, CA, USA). The LS traces were recorded by ASTRA Software Version 7.1.3.25 (Wyatt Technology Europe, Dernbach Germany).
Method: BM1 RNA lipoplexes were prepared as described above.
All other RNA lipoplexes were cryoprotected by adding cryoprotection buffers with no EDTA disodium salt (groups 0 mM and 0.4 mM EDTA disodium salt) or with EDTA disodium salt in a ratio of 1 to 6.7 to generate different EDTA disodium salt concentrations in the final PD composition.
Method: RNA lipoplexes were prepared with increasing amounts of NaCl for condensation of the RNA and liposomes without acetic acid. […]

Data set [5] in a line: RNA integrity in RNA lipoplexes, accelerated storage at 25° C. Conditions: for stabilization of the RNA integrity by buffer system: 5 mM buffer, pH 6.0-7.0, liposomes with 2 mM acetic acid; for stability of the RNA in RNA lipoplexes by buffer system: 10% sucrose, 6.45 mM NaCl, liposomes with 5 mM acetic acid. As to the method:
RNA lipoplexes are incubated under accelerated conditions (25° C.) in the presence of an exemplarily cryoprotectant. RNA integrity was analyzed by capillary electrophoresis over 60 days. Additionally, RNA lipoplexes are incubated under at the anticipated storage conditions (−15° C.) in the presence of an exemplarily cryoprotectant for up to two years. RNA integrity was analyzed by capillary electrophoresis.
The respective RNA lipoplexes were investigated under accelerated conditions (25° C.) and in the frozen state (−15° C.).
RNA lipoplexes were formed with liposomes containing 2 mM of acetic acid. The respective RNA lipoplexes were investigated under accelerated conditions (25° C.) and in the frozen state (−15° C.).
Method: All RNA lipoplexes were automatically prepared in a single batch and the different concentrations of HEPES were adjusted by the addition of a cryoprotectant solution containing different amounts of HEPES. Particle sizes and polydispersity of RNA lipolexes were analyzed by photon correlation spectroscopy (PCS) measurements. Additionally, the RNA integrity was analyzed by capillary electrophoresis and the pH was measured.
In the following study, the concentration of HEPES which is required for stabilization of the pH of the RNA lipoplexes was investigated. RNA lipoplexes were formed with liposomes containing 5 mM of acetic acid and different concentrations of HEPES were adjusted by using different cryoprotectant solutions and the respective RNA lipoplexes were investigated under accelerated conditions (25° C.). The pH range from pH 6.2 to 7.2 was tested.
In the following study, the long-term stability of RNA lipoplexes in the frozen state was investigated with the combination of the reduced concentration of NaCl and Sucrose in the presence of either HEPES or Histidine as a buffering agent at a pH of 6.5.
To analyze the RNA integrity, the RNA had to be isolated from the RNA lipoplexes. Cryoprotected RNA lipoplexes were mixed with RNeasy kit (Qiagen) RLT buffer in a ratio of 1 to 3.5. Then ethanol was added in a ratio of 1 part ethanol to 1.8 parts LPX-RLT.
The further RNA isolation was done using the RNeasy Mini Kit protocol and the RNeasy Mini Kit from Qiagen.
The integrity of the RNA was analyzed using a 48 capillary Fragment Analyzer Automated System by Advanced Analytical (AATI) according to the manufacturers instructions. Results were analyzed via PROSize 2.0 version 2.0.051 data analysis software.
Method: BM1 RNA lipoplexes were prepared as described above. All other RNA lipoplexes were prepared as described above with liposomes containing 5 mM acetic acid.
BM1 RNA lipoplexes were cryoprotected and RNA concentration adjusted as described above. All other RNA lipoplexes were cryoprotected by adding cryoprotection buffer containing the respective buffer substance in a ratio of 1 to 6.7. Final pH values were titrated by adding HCl or NaOH to the cryoprotected RNA lipoplexes, ending up to the following compositions:
Titrated, cryoprotected RNA lipoplexes were filled into 10R glass vials and stored at ambient temperature (25° C.) for at least 61 days. At defined points in time, two vials per group were collected and the RNA integrity was determined.

Data set [6] is described as follows: DOPE solubility in ethanol (HPLC). The format is physicochemical. The method, then: DOPE and DOPE/DOTMA solubility in ethanol was investigated by preparing 300 mM DOPE or 330 mM DOPE/DOTMA (66:33) solutions in ethanol. The lipids were dissolved by incubating the lipid solutions at 37° C. for 20 minutes. The DOPE solutions were centrifuged at 17000 G for 1h and the DOPE concentration was measured in the supernatant by HPLC. The DOTMA/DOPE solutions were filtered through a 0.22 μm PES syringe filter and the lipid concentration was measured in the filtrate by HPLC. Lipid concentration in the different liposome formulations were measured by HPLC (Agilent technologies. Santa Clara. USA) using a Sunfire C18 2.5 μm 4.6×75 mm column (Waters. Massachusetts. USA) and a wave length of 205 nm. Mobile phase A was a mixture of 70% methanol/30% isopropanol/0.1% TFA, mobile phase B was a mixture of 55% methanol/15% isopropanol/30% water/0.1% TFA. Liposomes samples were or not diluted with water to 3 mM total lipid concentration. It has been tested if DOPE-containing solutions of higher concentration can be prepared (in the supersaturated state) and used for ethanol injection for liposome manufacturing (next section).

How the values of data set [7] were obtained:
The mean value calculated from the first DOPE integrity values of the samples directly after manufacturing (0 month) was set to 1 as the initial integrity value of the respective study arm. The following values were normalized to this starting value.
Method: Liposomes were prepared as described above. To acidify the liposomes, different volumes of a 1 M stock solution of acetic acid was added to the liposomes with a total lipid concentration of 0.9 mM. After that, liposomes were stored at different acetic acid concentrations in a range from 0 mM to 3 mM up to a maximum of 6 months at different temperatures (4° C., 25° C. and 40° C.).
The source holds these as a separate data set.

The mark [8] stands for this setting: 70 mM NaCl, up to 10 times freezing.
The mark [9] stands for this setting: 90 mM NaCl, up to 10 times freezing.
[10] abbreviates: frozen with increasing amounts of cryoprotectant, Z-average, polydispersity, subvisible particles.

`O=P(O)(O)O` [sodium phosphate]: in data set [1], the “stabilization of the RNA (RNA integrity) by buffering system” value is “comparable results”.
For the compound `OC[C@H]1O[C@H](O[C@H]2O[C@H](CO)[C@@H](O)[C@H](O)[C@H]2O)[C@H](O)[C@@H](O)[C@@H]1O` [trehalose], in data set [2] (50 mM NaCl, even after 10 times freezing), the “trehalose sufficient for stabilization of RNA lipoplex particle characteristics” value is ≥ 12.5%. Besides, in data set [2] (setting [8]), the “trehalose required for exact preservation of the particle size” value was ≥ 22.5% and the “trehalose required for minimum stabilization” value was ≥ 12.5%. In addition, in data set [2] (setting [9]), the “exact preservation of the particle size” value was “could not be achieved even with the highest investigated concentration of 27.5%” and the “trehalose required for minimum stabilization” value is ≥ 15.0%. The “preservation of particle size after a single freezing step” value in data set [2] was “acceptable preservation of particle size”. In data set [3], the “stabilization efficacy on long-term storage” value was “No difference in the stabilization efficacy”.
Turning to `OC[C@H]1O[C@@](CO)(O[C@H]2O[C@H](CO)[C@@H](O)[C@H](O)[C@H]2O)[C@@H](O)[C@@H]1O` [sucrose], the “preservation of particle size after a single freezing step” value in data set [2] is given as “acceptable preservation of particle size”. Besides, the “sucrose concentration to ensure long-term stability of the drug product” value in data set [4] is reported as “at least 12 % (w/v)”. Further, the “stabilization efficacy on long-term storage” value in data set [3] was “No difference in the stabilization efficacy”.
For the compound `N[C@@H](Cc1c[nH]cn1)C(=O)O` [Histidine], in data set [5], the “stabilization of the RNA integrity by buffer system” value is given as “slightly reduced stability” and the “stability of the RNA in RNA lipoplexes by buffer system” value was “lower stability”.
Consider `CCCCCCCC/C=C\CCCCCCCC(=O)OC[C@H](COP(=O)(O)OCCN)OC(=O)CCCCCCC/C=C\CCCCCCCC` [DOPE, 1,2-di-(9Z-octadecenoyl)-sn-glycero-3-phosphoethanolamine], for which the “DOPE solubility in ethanol” value in data set [6] came out at 59 mM.
As to `O=C([O-])[O-].[Na+].[Na+]` [carbonate, sodium carbonate], the “stabilization of the RNA (RNA integrity) by buffering system” value in data set [1] is “did not result in comparable stabilization of the RNA”.
For `CC(=O)O` [acetic acid], in data set [7] (0-3 mM acetic acid, 4° C., 25° C., 40° C., up to 6 months), the “stability of DOPE in liposomes (DOPE ester hydrolysis)” value is on record as “Stability increases for all measured temperatures with increasing acetic acid concentration”. In addition, in data set [7] (liposomes 0.9 mM total lipid), the “acetic acid concentration above which stabilization efficacy plateaus” value is on record as “approx. 1 mM”.
`O=S(=O)(O)CCN1CCN(CCO)CC1` [HEPES, 2-[4-(2-hydroxyethyl)piperazin-1-yl]ethanesulfonic acid]: in data set [5], the “stabilization of the RNA integrity by buffer system” value is “comparable stabilization of the RNA integrity” and the “stability of the RNA in RNA lipoplexes by buffer system” value is given as “best stability”. The “RNA stability in the drug product by buffer” value in data set [5] (61 days, pH 6.4 to 7.0, vs Histidine, MES, Na-Acetate) was “significantly enhanced RNA stability in the drug product”.
As for `O=C(O)[C@@H]1CCCN1` [proline], in data set [2], the “stabilization of RNA lipoplexes during freezing” value is recorded as “can be used as cryoprotectants for RNA lipoplexes”.
With `OCC(O)CO` [Glycerin], the “stabilization of RNA lipoplexes during freezing” value in data set [2] (setting [10]) was “can be used as cryoprotectants for RNA lipoplexes”.
Still for that read-out and setting: the result for `N=C(N)NCCC[C@H](N)C(=O)O` [arginine] reads “clearly destabilizes the RNA lipoplexes”.
Take `OC[C@@H](O)[C@@H](O)[C@H](O)[C@@H](O)CO` [sorbitol]: in data set [2] (setting [10]), the “stabilization of RNA lipoplexes during freezing” value is given as “can be used as cryoprotectants for RNA lipoplexes; also recorded: stabilization efficacy of sorbitol is lower”.
